The values below come from article PMC2518627 (Analytical Biochemistry, 2007).

Data set [1] relates to NAADP binding protein from sea urchin (L. pictus) egg homogenate. The experiment in a line: NAADP radioreceptor binding assay (displacement of [32P]NAADP). More on the design: species or system Lytechinus pictus. Particulars: for IC50: read-out: IC50 (displacement of [32P]NAADP binding), 1% sea urchin egg homogenate, 25 °C. On the procedure:
First, 25 μl of test sample was added to each tube. Second, 125 μl of 1% (v/v) sea urchin egg homogenate in intracellular medium was added and allowed to incubate for 10 min at 25 °C. […] The tubes were then incubated at room temperature for a further 10 min at 25 °C. Note that the order of addition is important to maximize the sensitivity of the assay. […] Washing was carried out three times using 1 ml of a buffer containing 20 mM Hepes and 500 mM potassium acetate (pH 7.4).
Radioactivity was determined by placing the filter circles in a scintillation vial containing 10 ml H2O, followed by Cerenkov scintillation counting.
Filter papers were wrapped in cling film and then placed in a cassette to expose a storage phosphor screen (GE Healthcare) for 1 to 4 h. The screen was then scanned using a Typhoon 9400 scanner (GE Healthcare) at a resolution of 100 μm. The resulting image was then analyzed using ImageQuant (GE Healthcare).
Samples are then filtered using a cell harvester. […] Sample concentrations may then be determined from the standard curve.

Another data set has as its system pancreatic acinar cells. The experiment in a line: NAADP levels in pancreatic acinar cells preincubated with BAPTA-AM. The data set is classed as cell-based, CD1 mice. On the procedure:
Cells may be prepared in any suitable manner; gametes, isolated cells, chopped tissue, and cells in culture all have been used successfully. Cells were then exposed to agonist, and at the appropriate time points the reaction in cells was stopped by the addition of 0.75 M ice-cold HClO4 added as an equal volume of 1.5 M solution. Sonication (Jencons Vibracell at amplitude 60) was carried out to disrupt the cells, which were then placed on ice for 15 min. The denatured protein was pelleted by centrifugation at 9000g for 10 min and stored at –80 °C for later analysis. Supernatant was neutralized with 1 M KHCO3, added as an equal volume of 2 M solution, and vortexed. The resulting KClO4 precipitate was removed by centifugation at 9000g for 10 min. Samples were stored at –80 °C for later analysis.
Pancreatic acinar cells were prepared as described previously. Briefly, pancreata were excised from 8- to 10-week-old male CD1 mice and were finely chopped before incubation with 200 U/ml collagenase for 15 min at 37 °C. The digested tissue was then washed and resuspended to 10 ml with buffer of the following composition: 140 mM NaCl, 4.7 mM KCl, 1 mM MgCl2, 1 mM CaCl2, 10 mM Hepes, and 10 mM glucose (pH 7.4). Protease inhibitor cocktail tablets (EDTA free, Roche Diagnostics, UK), one tablet per 50 ml, were added to this solution before use. The suspension was triturated, and supernatant that contained dispersed cells was collected into a new tube. After centrifugation at 800g for 3 min at 4 °C, the supernatant was discarded and the cell pellet was resuspended for further trituration and centrifugation. The resulting supernatant was discarded, and the cells were kept in buffer supplemented with 1 mM CaCl2 at room temperature on a rocking board for 30 min before use. Prior to use, the cells were centrifuged at 800g for 1 min at 4 °C. The cells were suspended in the above buffer without the addition of protease inhibitors. Pancreatic acinar cells were aliquoted into tubes. […]

The nature of data set [2]: Stability of nucleotides under different pH conditions (HPLC). The data set is classed as physicochemical. The following applies: 1 mM, 6 h. The protocol: All high-performance liquid chromatography (HPLC) was carried out on an anion exchange resin (AGMP1, Bio-Rad, USA), packed in 150 × 2.5-mm Omnifit columns, using a concave upward gradient of trifluoroacetic acid (TFA), delivered by a Waters 600e pump, as described previously. Detection was performed by a UV detector (Waters 2487, UK) at 254 nm.
Samples were then neutralized with their base equivalence of either Tris base (for acidic solutions) or Hepes acid (for basic solutions) as applicable. Samples were analyzed by HPLC as described above, with elution times being determined from standard runs with known compounds.

For a further data set, the system named is human NAD kinase. More on the design: method as in PMID 11594753. The following applies: cited from earlier work.
The mark [3] stands for this setting: maximum concentration tested 2 mM.
Setting [4] is: 100 pM CCK after preincubation with 20 μM BAPTA-AM.
[5] abbreviates: maximum concentration tested 100 μM.

Usually IC50 stands for the concentration at which inhibition is half-maximal. The Km is the substrate concentration at which the rate is half of its maximum.

For `NC(=O)C1=CN([C@@H]2O[C@H](COP(=O)(O)OP(=O)(O)OC[C@H]3O[C@@H](n4cnc5c(N)ncnc54)[C@H](O)[C@@H]3O)[C@@H](O)[C@H]2O)C=CC1` [NADH], in data set [1] (setting [3]), the “Displacement of NAADP at the maximum concentration tested” value (from here on “Displacement of NAADP”) is “failed to displace”.
With cholecystokinin [CCK], in the data set on pancreatic acinar cells (setting [4]), the “Change in NAADP levels” value was “continuous increase” and the “Duration of increase in NAADP levels” value is “at least 20 min”.
Take `CC(=O)OCOC(=O)CN(CC(=O)OCOC(C)=O)c1ccccc1OCCOc1ccccc1N(CC(=O)OCOC(C)=O)CC(=O)OCOC(C)=O` [BAPTA-AM, 1,2-bis(2-aminophenoxy)ethane-N,N,N′,N′-tetraacetic acid tetrakis (acetoxymethyl) ester]: the “Change in NAADP levels” value with pancreatic acinar cells (20 μM BAPTA-AM alone, followed by control buffer) was “no change”.
With `NC(=O)C1=CN([C@@H]2O[C@H](COP(=O)(O)OP(=O)(O)OC[C@H]3O[C@@H](n4cnc5c(N)ncnc54)[C@H](OP(=O)(O)O)[C@@H]3O)[C@@H](O)[C@H]2O)C=CC1` [NADPH], the “Stability at pH 7.2” value in data set [2] (50 mM Hepes (pH 7.2)) is “remained stable”. Further, the “Stability at pH 0.88” value in data set [2] (0.75 M HClO4 (pH 0.88)) was “became unstable”. The “Stability at pH 8.6” value in data set [2] (0.75 M HClO4/1 M KHCO3 (pH 8.6)) is “became unstable”. In data set [2] (1 M K2CO3 (pH 11)), the “Stability at pH 11” value is “similarly unstable”. Besides, the “Stability at pH 9.1” value in data set [2] (1 M KHCO3 (pH 9.1)) was “became unstable”. The IC50 in data set [1] came out at 6.3 µM.
Turning to `Nc1ncnc2c1ncn2[C@@H]1O[C@H](COP(=O)(O)OP(=O)(O)OP(=O)(O)O)[C@@H](O)[C@H]1O` [ATP], the “Displacement of NAADP” value in data set [1] (setting [5]) is recorded as “failed to displace”.
Same read-out and setting: next, `Nc1ncnc2c1ncn2[C@@H]1O[C@H](COP(=O)(O)OP(=O)(O)OC[C@H]2OC(O)[C@H](O)[C@@H]2O)[C@@H](O)[C@H]1O` (stereo partly shown) [ADPR]: “failed to displace”.
Same read-out and setting: as for `O=C(O)c1cccnc1` [nicotinic acid], the entry is “failed to displace”.
As for `Nc1ncnc2c1ncn2[C@@H]1O[C@H](COP(=O)(O)OP(=O)(O)O)[C@@H](O)[C@H]1O` [ADP], the “Displacement of NAADP” value in data set [1] (setting [5]) was “failed to displace”.
In the case of “nicotinic acid adenine dinucleotide phosphate [NAADP]”, the IC50 in data set [1] turned out to be 0.00054 µM.
“nicotinamide adenine dinucleotide phosphate [NADP]”: the half-inhibitory concentration (IC50) in data set [1] turned out to be 21 µM.
As for `NC(=O)c1ccc[n+]([C@@H]2O[C@H](COP(=O)([O-])OP(=O)(O)OC[C@H]3O[C@@H](n4cnc5c(N)ncnc54)[C@H](O)[C@@H]3O)[C@@H](O)[C@H]2O)c1` [NAD, nicotinamide adenine dinucleotide], the “Displacement of NAADP” value in data set [1] (setting [3]) was “failed to displace”. For the same molecule, the Km with human NAD kinase is 800 µM.
As for `N=c1c2ncn3c2ncn1[C@@H]1O[C@H](COP(=O)(O)OP(=O)(O)OC[C@H]2O[C@@H]3[C@H](O)[C@@H]2O)[C@@H](O)[C@H]1O` [cADPR, cyclic ADP ribose], in data set [1], the half-maximal inhibitory concentration (IC50) is 2.5 µM.
Still for that read-out and setting: as for `Nc1ncnc2c1ncn2[C@@H]1O[C@H](COP(=O)(O)OP(=O)(O)OC[C@H]2O[C@@H]([n+]3cccc(C(=O)O)c3)[C@H](O)[C@@H]2O)[C@@H](O)[C@H]1O` [NAAD, nicotinic acid adenine dinucleotide], the figure is 51 µM.
Turning to `O=P(O)(O)O[C@@H]1[C@H](O)[C@H](O)[C@@H](OP(=O)(O)O)[C@H](OP(=O)(O)O)[C@H]1O` [IP3, D-myo-inositol 1,4,5-trisphosphate], in data set [1] (setting [5]), the “Displacement of NAADP” value was “failed to displace”.
On to `Nc1ncnc2c1ncn2[C@@H]1O[C@H](COP(=O)(O)O)[C@@H](O)[C@H]1O` [AMP], for which, in data set [1] (setting [5]), the “Displacement of NAADP” value was “failed to displace”.
